Where two headings read alike, the source gives them in different places. No end group written: not given here.
Target: T1, GPR103 Y194^ECL2A (Homo sapiens, UniProt Q96P65, Y194A)
T1 construct: we used human full-length QRFPR-encoding plasmids; expressed in transfected cells; host or cells: HEK293 cells, pCAGGS vector
T1 sequence (Q96P65 1-431 Y194A): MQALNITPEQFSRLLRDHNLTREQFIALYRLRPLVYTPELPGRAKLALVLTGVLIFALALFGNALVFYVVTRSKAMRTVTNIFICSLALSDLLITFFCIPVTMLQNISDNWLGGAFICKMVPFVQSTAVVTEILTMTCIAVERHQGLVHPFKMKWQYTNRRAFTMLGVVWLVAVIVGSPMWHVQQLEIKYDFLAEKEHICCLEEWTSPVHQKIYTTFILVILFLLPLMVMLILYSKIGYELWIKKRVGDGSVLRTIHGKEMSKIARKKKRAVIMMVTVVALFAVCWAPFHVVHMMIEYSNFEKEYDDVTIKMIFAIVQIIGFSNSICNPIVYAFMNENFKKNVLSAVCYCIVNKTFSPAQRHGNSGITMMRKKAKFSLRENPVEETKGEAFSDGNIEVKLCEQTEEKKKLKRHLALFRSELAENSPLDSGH
Test: TGFα shedding assay; Exp. level WT (1:10)
Assay type: cell-based
Procedure: For the TGFα shedding assay and the flow cytometry analysis, we used human full-length QRFPR-encoding plasmids. Specifically, GPR103 was N-terminally modified with an HA signal sequence followed by a FLAG epitope and then a flexible linker ([…]; the FLAG epitope is underlined) and inserted into the pCAGGS vector. Plasmid encoding GPR103 mutants were generated using Quickchange Site-Directed Mutagensis kit (Agilent).
The TGFα shedding assay was performed as described previously with minor modifications. Plasmid transfection was performed in a 6-well plate with a mixture of 500 ng (per well in a 6-well plate) AP-TGFα-encoding plasmid and 200 ng GPR103-encoding plasmid. After 1-day culture, the transfected cells were harvested by trypsinization, pelleted by centrifugation at 190 × g for 5 min, and washed once with 5 mM HEPES (pH 7.4)-containing Hank’s Balanced Salt Solution (HBSS). After centrifugation, the cells were resuspended in 8 mL of the HEPES-containing HBSS. The cell suspension was seeded in a 96-well culture plate (cell plate) at a volume of 90 μL (per well hereafter) and incubated in a 37 °C incubator with 5% CO2 for 30 min. […] After spinning the cell plates at 190 × g for 2 min, 80 μL of conditioned media was transferred to an empty 96-well plate (conditioned media (CM) plate). Then, 80 μL of AP reaction solution (10 mM p-nitrophenylphosphate (p-NPP), 120 mM Tris-HCl (pH 9.5), 40 mM NaCl, and 10 mM MgCl2) was dispensed into the cell plates and the CM plates. Absorbance at 405 nm of the plates was measured using a microplate reader (SpectraMax 340 PC384, Molecular Devices) before and after 1-h incubation at room temperature. Ligand-induced AP-TGFα release was calculated by subtracting spontaneous AP-TGFα release signal from ligand-induced AP-TGFα release signal. The AP-TGFα release signals were fitted to a four-parameter sigmoidal concentration–response curve, using the Prism 10 software (GraphPad Prism). For each replicate experiment, the pEC50 parameter (negative logarithmic values of EC50 values) of the individual GPR103 mutants were normalized to that of the wild-type GPR103 performed in parallel, and resulting ∆pEC50 values were used to denote ligand response activity of the mutants. […]
Exp. le vel: WT (1:5 0)Exp. le vel: WT (1:5 0)Exp. le vel: WT (1:5 0)Exp. le vel: WT (1:2 0)Exp. le vel: WT (1:2 0)Exp. le vel: WT (1:1 0) […]
L1 4N - t e r mA F2 5N - t e r mA I 2 6N - t e r mA Y 2 9N - t e r mA C 9 82 .5 7A T10 22 .6 1A Exp . l eve l: WT (1 :5)Exp . l evel : >WT (1 :1)Exp. le vel: WT (1:2 0)Exp. le vel: WT (1:2 0)Exp. le vel: WT (1:5 0)Exp . l eve l: WT (1 :1) […]
Exp. le vel: WT (1:1 0)Exp. le vel: WT (1:2 0) C 1 1 83 .2 5AExp. le vel: WT (1:5 0)Exp. le vel: WT (1:5 0)Exp. le vel: WT (1:2 0)Exp . l eve l: WT (1 :5) […]
Exp. le vel: WT (1:5 0)Exp. le vel: WT (1:1 0)Exp. le vel: WT (1:5 0) E203ECL2AExp . l evel : >WT (1 :1)Exp. le vel: WT (1:5 0)Exp. le vel: WT (1:5 0) […]
Exp . l eve l: WT (1 :1) F28Exp. le vel: WT (1:5 0) C 2 8 56 .4 7AExp. le vel: WT (1:2 0) WExp. le vel: WT (1:2 0) F28Exp. le vel: WT (1:5 0)Exp . l evel : >WT (1 :1) […]
Exp. le vel: WT (1:5 0)Exp. le vel: WT (1:5 0) C 3 2 77 .4 8AExp . l eve l: WT (1 :5)Exp . l evel : >WT (1 :1)Exp . l evel : >WT (1 :1) […]
Suppl eme nt ary Figure 1 | Mutational analysis of GPR103. […]
mutants. Data are presented as mean values ± SEM, normally n=3-5; dots), each performed in triplicate. b-d Cell-surface expression (b) and QRFP26-in-duced activation of GPR103 (c, d) were analyzed by the flow cytometry and the TGFα shedding assay, respectively. From the concentration–response curves (a), Emax (c) and ΔpEC50 (d) values relative to the wild type were calculated. Colors in the mutant bars indicate an expression level matching to that of titrated wild type. Statistical analyses were performed using the ordinary one-way ANOVA followed by Dunnett tests with the expression-matched […]

- Emax (Exp. #1): 91.33 % WT
- Emax (Exp. #2): 94.38 % WT
- Emax (Exp. #3): 115.19 % WT
- Emax (mean, read-out: Emax): 100%
- EC50 (n = 3): 93.3 nM
- Emax (n = 3, read-out: Emax): 102 ± 6.1%
Substance: TSGPLGNLAEELNGYSRKKGGFSFRF-NH2 [QRFP26]

— PMC11187126, “Structure and dynamics of the pyroglutamylated RF-amide peptide QRFP receptor GPR103” (Nature Communications, 2024)
